Data from patent US20230310496A1, “COMPOSITIONS AND METHODS FOR PREVENTING AND/OR AM[…]-[…] AUTOIMMUNE DISEASES” (MiZ Company Limited, priority 2022, published 2023).
Like-named read-outs stand apart in the source and are kept apart here.

What was measured:
myasthenia gravis = experiment: Course of myasthenia gravis under drugs before inhalation of hydrogen gas (Example 1); assay type: in vivo, human; conditions: Tacrolimus 3 mg/day, Mestinon 60 mg × 3/day
Procedure: The course from onset is as follows:
Aug. 26, 2021: upper lip paralysis occurred. […] Since the patient was positive on an ice pack test and a Tensilon test, they were diagnosed as myasthenia gravis. No abnormality was found in a CT test. As a result of a blood test, the patient was false positive to an anti-acetylcholine antibody and prescribed an immunosuppressant (Tacrolimus 3 mg/day). […] The patient could not read letters on a newspaper, raise a frying pan or write letters, and their chewing power reduced.
Sep. 9, 2021: the patient consulted the doctor because of worsening of symptoms and prescribed an anticholinesterase agent (Mestinon 60 mg × 3/day). […] Every day after 3 p.m. or later, the patient felt that their arms are unbearably heavy. Since the arms cannot be removed, the patient spent time with the arms kept on a table.
Sep. 25, 2021: since symptoms were not improved and merely got worse, the patient changed their primary doctor to a neuroimmunology specialist doctor and hospitalization was considered.
Sep. 29, 2021: an immunosuppressant (1 mg) was additionally prescribed by the neuroimmunology specialist doctor; that is, immunosuppressants (Tacrolimus 3 mg/day, Prograf 1 mg/day) were prescribed. The patient avoided hospitalization but was followed up as an outpatient. […] Based on the result, the patient was definitively diagnosed as anti-MuSK antibody positive myasthenia gravis. […]

Hashimoto's disease = conditions: MHG-2000α, hydrogen about 5% to 7%
[1] = tested on: anti-MuSK antibody positive myasthenia gravis; conditions: for relapse after use of the immunosuppressants was stopped: only hydrogen gas inhalation continued since Mar. 30, 2022, supplemental hydrogen water
Procedure: Patient: person at the time of onset. The course from onset is as follows:
Jan. […] (Kamakura city, Kanagawa prefecture, Japan).
Aug. 24, 2022: medical examination was carried out at the Department of Neurology in the Juntendo University Hospital.

[2] = human, in vivo

Row | Structure (SMILES) | symptoms of myasthenia gravis under the drug (myasthenia gravis) | fatigue (Hashimoto's disease) | visual field (dark visual field) (Hashimoto's disease) | languor of the arm ([1]; Day 5 after initiation of inhalation, Jobs-α, hydrogen about 4% to 5%, Jan. 28, 2022) | constipation, a side effect of the immunosuppressants ([1]; Feb. 1, 2022, inhalation started Jan. 23, 2022) | blemishes on their face ([1]; Feb. 16, 2022) | symptoms of myasthenia gravis ([1]; Mar. 20, 2022) | body feeling when inhaling hydrogen gas ([1]; Mar. 22, 2022) | state of myasthenia gravis as told by the doctor ([1]; Oct. 19, 2022) | face turning red after drinking alcohol (side effect of the drugs) ([1]; after inhalation of hydrogen, Feb. 1, 2022) | number of red blood cells ([1]; blood test Mar. 9, 2022, under hydrogen inhalation, normal 3.8 to 5.04) | hematocrit ([1]; blood test Mar. 9, 2022, under hydrogen inhalation, normal 35.6 to 45.4) [%] | anti-MuSK antibody ([1]; medical examination Aug. 24, 2022) | relapse after use of the immunosuppressants was stopped [1] | relapse after use of the immunosuppressants was stopped ([1]; listed as hydrogen) | side effects of hydrogen itself [2]
1 | CN(C)C(=O)Oc1ccc[n+](C)c1 [Mestinon] | their symptoms further got worse | – | – | – | – | – | – | – | – | – | – | – | – | – | – | –
2 | C=CC[C@@H]1/C=C(\C)C[C@H](C)C[C@H](OC)[C@H]2O[C@@](O)(C(=O)C(=O)N3CCCC[C@H]3C(=O)O[C@H](/C(C)=C/[C@@H]3CC[C@@H](O)[C@H](OC)C3)[C@H](C)[C@@H](O)CC1=O)[C@H](C)C[C@@H]2OC [Tacrolimus] | the symptoms progressed | – | – | – | – | – | – | – | – | – | – | – | – | – | – | –
3 | [HH] [hydrogen gas, hydrogen] | – | felt less fatigued | recovered from darkness and became bright | completely gone | overcome | became light | no longer observed | the body gets lighter | not in remission but in healed state | their face never turned red | 4.22 10^12/L | 40.7 | negative | no relapse occurred | no relapse has taken place | not found
